# Strand notation (5' to 3'): a small letter for the sugar, then the base; units joined by * are phosphorothioate-linked, units joined directly phosphodiester-linked; [ ] holds rarer units or linkages, { } end groups; capitals alone tell only the bases. [PNAc] = P=N-pPh-NAc phosphoramidate mimetic linkage (p1); {Fluorescein} = fluorescein label; d = 2'-deoxy (DNA)
# Assays:
# [1] = test system: factor V wild type sequence; assay: Melting curve analysis of donor probes, wild type; format: binding; details: melting temperature of donor probe for factor V wild type sequence; in °C (unit assumed)
# Experimental: (§1) A quantitative real time PCR of factor V DNA with subsequent melting curve analysis was carried out on a LIGHTCYCLER 1.2 instrument (Roche Diagnostics GmbH) in order to analyse the effect of phosphate mimetics on hybridization. Primers were used in combination with a pair of fluorescein/LIGHTCYCLER Red 640 FRET hybridization probes. The primers and the 5′ LIGHTCYCLER Red 640 probe were kept constant. The various 3′ fluorescein probes modified on the phosphate from example 4 and the unmodified fluorescein probe as a reference were used as FRET donor probes. The effect on the crossing point which is a measure for the amplification efficiency and the effect on the melting point were evaluated.
# After the amplification a melting curve analysis was carried out according to the instructions of the LIGHTCYCLER manual (Roche Applied Sciences).
# (§2) The following temperature program was used:
# (§3) The absolute fluorescence signals are measured as above in the 640 nm channel and subsequently the first derivative was calculated from this.
# (§4) The crossing points are shown in the following table as a measure for the amplification efficiency when using different modified donor probes.
# factor V mutant sequence = assay: Melting curve analysis of donor probes, mutant; format: binding; details: melting temperature of donor probe for factor V mutant sequence; in °C (unit assumed)
# Experimental: A quantitative real time PCR of factor V DNA with subsequent melting curve analysis was carried out on a […] 1.2 instrument (Roche Diagnostics GmbH) in order to analyse the effect of phosphate mimetics on hybridization. Primers were used in combination with a pair of fluorescein/[…] Red 640 FRET hybridization probes. The primers and the 5′ […] Red 640 probe were kept constant. […] The effect on the crossing point which is a measure for the amplification efficiency and the effect on the melting point were evaluated.
# After the amplification a melting curve analysis was carried out according to the instructions of the […] manual (Roche Applied Sciences).
# as §2, §3
# factor V DNA = assay: Real time PCR of factor V DNA with modified FRET donor probes (crossing point); format: biochemical; details: LIGHTCYCLER 1.2, 106 copies of plasmid, 200 nM FRET probes, 640 nm channel
# Experimental: as §1
# 20 μl of a PCR reaction mixture was prepared as follows for the amplification of a factor V DNA fragment.
# 106 copies of a plasmid which contains the factor V wild type gene and mutants (Gene Bank Accession No. M 014335)
# 500 nM each primers having the SEQ ID NO: 1 and 2
# 200 nM each FRET hybridization probes having the SEQ ID NO: 3 and 4
# The LIGHTCYCLER DNA Master Hyb Probes Kit (Roche Applied Science, Cat. No. 2158825) was used for all other PCR components according to the manufacturer's instructions.
# The following sequences were used as primers and probes: […]
# The following temperature program was used for the amplification on the LIGHTCYCLER 1.2 (Roche Applied Science).
# The real time monitoring was carried out over 45 cycles using the 2nd derivative threshold method in which the fluorescence signal was measured in a detection channel that is specific for the LIGHTCYCLER Red 640 emission (at 640 nm) and the arithmetic background correction mode was used to normalize the initial signal.
# as §4
# [2] = Stability of dinucleotides at different temperatures and pH, reverse phase HPLC; format: physicochemical; details: for stability: pH 7.0, 8.0 and 9.0, 24 h at rt, 1 h at 95° C.
# Experimental: dA(P(═NSO2PhNHAc)dT was synthesized and purified according to example 1) dAdT was also synthesized according to example 1, but standard oxidizers were used (0.02 M iodine in THF).
# The dimers were exposed for different times and temperatures in 10 mM Tris buffer at different pH values 7.0, 8.0, and 9.0. Samples were left at room temperature (approx. 24° C.) for 24 h or at 95° C. for 60 min respectively 16 h. 150 μL aliquots were removed before and after the experiment and 100 μL volumes were injected on the HPLC.
# The decomposition was monitored by reverse phase HPLC on an analytical X-Bridge column (2.5 μm, 4.6×50 mm i.d.) with a Waters 2690 separation module. Detection was carried out with a Waters 2996 PAD Detector (260 nm). A mobile phase of 0.1 M triethylammonium acetate (pH 6.8) pumped with a 95% gradient of acetonitrile at flow rate of 1.0 ml/min was used. The destruction rate of the dimers was judged by monitoring the retention time rt of the dimer signal (Software Millenium, Waters) and determining whether additional peaks with retention times different than that, of the nucleotide dimer occur.
# [3] = pH 7.0, 10 mM Tris, 1 h at 95° C. (dry oven)
# [4] = pH 7.0, 10 mM Tris, 16 h at 95° C. (dry oven)
# [5] = pH 7.0, 10 mM Tris, 24 h at rt (24° C.)
# [6] = pH 7.0, 10 mM Tris, starting solution
# [7] = pH 8.0, 10 mM Tris, 1 h at 95° C. (dry oven)
# [8] = pH 8.0, 10 mM Tris, 16 h at 95° C. (dry oven)
# [9] = pH 8.0, 10 mM Tris, 24 h at rt (24° C.)
# [10] = pH 8.0, 10 mM Tris, starting solution
# [11] = pH 9.0, 10 mM Tris, 1 h at 95° C. (dry oven)
# [12] = pH 9.0, 10 mM Tris, 16 h at 95° C. (dry oven)
# [13] = pH 9.0, 10 mM Tris, 24 h at rt (24° C.)
# [14] = pH 9.0, 10 mM Tris, starting solution
substance,measurement,setting,value
5′ AATACCTGTATTCCTCGCCTGTp1C fluorescein-3′: Example 4 fluorescein probe SEQ ID NO: 4; p1 is a P = N-pPh-NAc mimetic (DNA dAdAdTdAdCdCdTdGdTdAdTdTdCdCdTdCdGdCdCdTdGdT[PNAc]dC-{Fluorescein}),Tm wt,[1],64.32
same,Tm mt,factor V mutant sequence,56.26
same,"Cp (crossing point, measure for the amplification efficiency)",factor V DNA,22.61
"5′ AATACCTGp1TATTCCTCp1GCCTGTC-fluorescein-3′: Example 4 fluorescein probe SEQ ID NO: 4, two-fold modified; p1 is a P = N-pPh-NAc mimetic (DNA dAdAdTdAdCdCdTdG[PNAc]dTdAdTdTdCdCdTdC[PNAc]dGdCdCdTdGdTdC-{Fluorescein})",Tm wt,[1],64.28
same,Tm mt,factor V mutant sequence,55.89
same,"Cp (crossing point, measure for the amplification efficiency)",factor V DNA,22.26
"5′ Ap1Ap1Tp1ACCTGTATp1Tp1Cp1CTCGCCTp1Gp1Tp1C-fluorescein-3′: Example 4 fluorescein probe SEQ ID NO: 4, multiply modified; p1 is a P = N-pPh-NAc mimetic (DNA dA[PNAc]dA[PNAc]dT[PNAc]dAdCdCdTdGdTdAdT[PNAc]dT[PNAc]dC[PNAc]dCdTdCdGdCdCdT[PNAc]dG[PNAc]dT[PNAc]dC-{Fluorescein})",Tm wt,[1],61.40
same,Tm mt,factor V mutant sequence,52.83
same,"Cp (crossing point, measure for the amplification efficiency)",factor V DNA,22.00
"5′ AATACCTGTATTp1Cp1Cp1Tp1Cp1Gp1Cp1Cp1Tp1Gp1Tp1C-fluorescein-3′: Example 4 fluorescein probe SEQ ID NO: 4, multiply modified; p1 is a P = N-pPh-NAc mimetic (DNA dAdAdTdAdCdCdTdGdTdAdTdT[PNAc]dC[PNAc]dC[PNAc]dT[PNAc]dC[PNAc]dG[PNAc]dC[PNAc]dC[PNAc]dT[PNAc]dG[PNAc]dT[PNAc]dC-{Fluorescein})",Tm wt,[1],60.74
same,Tm mt,factor V mutant sequence,52.14
same,"Cp (crossing point, measure for the amplification efficiency)",factor V DNA,21.91
"5′ Ap1Ap1Tp1Ap1Cp1Cp1Tp1Gp1Tp1Ap1Tp1TCCTCGCCTGTC-fluorescein-3′: Example 4 fluorescein probe SEQ ID NO: 4, multiply modified; p1 is a P = N-pPh-NAc mimetic (DNA dA[PNAc]dA[PNAc]dT[PNAc]dA[PNAc]dC[PNAc]dC[PNAc]dT[PNAc]dG[PNAc]dT[PNAc]dA[PNAc]dT[PNAc]dTdCdCdTdCdGdCdCdTdGdTdC-{Fluorescein})",Tm wt,[1],60.69
same,Tm mt,factor V mutant sequence,52.19
same,"Cp (crossing point, measure for the amplification efficiency)",factor V DNA,21.40
dA(P(═NSO2PhNHAc)dT [dA(P(=NSO2PhNHAc)dT],decomposition,[2]; after 16 h at 95° C. at pH 7.0,started decomposing
same,rtHPLC (retention time of the dimer signal),[2]; [3],rtHPLC = 2.99
same,additional peaks (decomposition),[2]; [4],"2 new peaks t = 1.2, 2.0."
same,rtHPLC (retention time of the dimer signal),[2]; [4],rtHPLC = 2.99
same,rtHPLC (retention time of the dimer signal),[2]; [5],rtHPLC = 2.93
same,rtHPLC (retention time of the dimer signal),[2]; [6],rtHPLC = 2.93
same,stability,[2],stable
same,rtHPLC (retention time of the dimer signal),[2]; [7],rtHPLC = 2.92
same,rtHPLC (retention time of the dimer signal),[2]; [8],rtHPLC = 2.92
same,rtHPLC (retention time of the dimer signal),[2]; [9],rtHPLC = 2.96
same,rtHPLC (retention time of the dimer signal),[2]; [10],rtHPLC = 2.96
same,rtHPLC (retention time of the dimer signal),[2]; [11],rtHPLC = 2.95
same,rtHPLC (retention time of the dimer signal),[2]; [12],rtHPLC = 2.95
same,rtHPLC (retention time of the dimer signal),[2]; [13],rtHPLC = 2.92
same,rtHPLC (retention time of the dimer signal),[2]; [14],rtHPLC = 2.92
"5′ AATACCTGTATTCCTCGCCTGTC-fluorescein-3′ (ref): unmodified fluorescein FRET donor probe SEQ ID NO: 4, used as a reference (DNA dAdAdTdAdCdCdTdGdTdAdTdTdCdCdTdCdGdCdCdTdGdTdC-{Fluorescein}) [reference compound]",Tm wt,[1],64.92
same,Tm mt,factor V mutant sequence,56.98
same,"Cp (crossing point, measure for the amplification efficiency)",factor V DNA,22.11
5′ Ap1ATACCTGTATTCCTCGCCTGTC fluorescein-3′: Example 4 fluorescein probe SEQ ID NO: 4; p1 is a P = N-pPh-NAc mimetic (DNA dA[PNAc]dAdTdAdCdCdTdGdTdAdTdTdCdCdTdCdGdCdCdTdGdTdC-{Fluorescein}),Tm wt,[1],64.80
same,Tm mt,factor V mutant sequence,56.80
same,"Cp (crossing point, measure for the amplification efficiency)",factor V DNA,22.51
dAdT,decomposition,[2]; after 16 h at pH 7.0 and pH 8.0,started decomposing
same,rtHPLC (retention time of the dimer signal),[2]; [3],rtHPLC = 2.48
same,additional peaks (decomposition),[2]; [4],1 new peak t = 6.2
same,rtHPLC (retention time of the dimer signal),[2]; [4],rtHPLC = 2.42
same,rtHPLC (retention time of the dimer signal),[2]; [5],rtHPLC = 2.39
same,rtHPLC (retention time of the dimer signal),[2]; [6],rtHPLC = 2.39
same,stability,[2],stable
same,rtHPLC (retention time of the dimer signal),[2]; [7],rtHPLC = 2.42
same,additional peaks (decomposition),[2]; [8],1 new peak 6.2
same,rtHPLC (retention time of the dimer signal),[2]; [8],rtHPLC = 2.41
same,rtHPLC (retention time of the dimer signal),[2]; [9],rtHPLC = 2.38
same,rtHPLC (retention time of the dimer signal),[2]; [10],rtHPLC = 2.38
same,rtHPLC (retention time of the dimer signal),[2]; [11],rtHPLC = 2.42
same,rtHPLC (retention time of the dimer signal),[2]; [12],rtHPLC = 2.43
same,rtHPLC (retention time of the dimer signal),[2]; [13],rtHPLC = 2.41
same,rtHPLC (retention time of the dimer signal),[2]; [14],rtHPLC = 2.41

# Reference: patent US7741472B2, “Polynucleotide containing a phosphate mimetic” (Roche Diagnostics Operations, Inc., priority 2005, dated 2010)
